According to PubChem BioAssay AID2060895 (Molecular Pharmacology Branch, DTP, NCI, 2025):
pIC50: −log10 of the molar value.

System: PDC 899932-113-R3-J6 complex spheroid viability
Assay: Anticancer human tumor 899932-113-R3-J6-PDC patient-derived melanoma cell line growth inhibition [RAS]
Settings: for pIC50: curve of first compound; for viability, T/C: stronger effect = lower value; active means viability on the fitted dose curve at most 10% of control; inactive means the rest
Source text: RAS pathway inhibitors in Combinations in Complex Spheroids
A high-throughput screen of multi-cell type tumor spheroids was designed to identify active combinations of RAS pathway inhibitors and targeted small molecules. Complex spheroids include a stromal component modeled by human endothelial cells (HUVEC) and fibroblasts modeled by human mesenchymal stem cells (MSCs). The concentration ranges selected for each drug and investigational agent were based upon clinically achievable concentrations if the clinical Cmax of the agent was known.
Compounds. The drugs and investigational agents: abemaciclib (NSC768073), cobimetinib (NSC768068), divarasib (GDC6063, NSC841802), docetaxel (NSC628503), GDC-1971 (RLY-1971, NSC841576), gemcitabine (NSC613327), inavolisib (NSC800729), ipatasertib (NSC767898), KB-0742 (NSC834161), MRTX-1133 (NSC836407), osimertinib (NSC779217), RMC-4630 (NSC839698), RMC-6236 (NSC851965), RMC-6291 (NSC852671), Ro-3306 (NSC812927), sapanisertib (NSC764658), SN-38 (NSC673596), staurosporine (NSC755774), SY5609 (NSC837396), and tovorafenib (DAY101, NSC766906), were obtained from the National Cancer Institute (NCI) Developmental Therapeutics Program Chemical Repository. The FDA-approved anticancer drug set is available from the NCI Developmental Therapeutics Program. […] The stock solutions were prepared in dimethyl sulfoxide (DMSO, Sigma-Aldrich, St. Louis, MO, cat. D2650) at 800-fold the tested concentration and stored at -70 degrees C prior to their use. All drugs and investigational agents were tested over a range starting from a high concentration at or near the clinical Cmax and decreasing in half-log increments. If the clinical Cmax for an agent had not been determined, the highest concentration tested was 10 microM.
Cell Culture. All cells were maintained in an incubator at 37 degrees C and 5% CO2 with 95% humidity. The PDC lines were cultured according to standard operating procedures established by the NCI PDMR. All PDCs were thawed and cultured in Matrigel-coated flasks prepared with a working solution of 1X Ham's F-12 nutrient mix, without supplementation (Invitrogen, Waltham, MA, cat. 11765054), 100 U/mL penicillin-streptomycin (Invitrogen, cat. 15140122), and 2.5% Matrigel (Corning Inc., Corning, NY, cat. 354248) for the first three passages. The 362531-283-R-J2-PDC and 782815-120-R-J1-PDC lines were cultured in 6C/Colon 1B media, which includes advanced DMEM/F-12 (Thermo Fisher Scientific, cat. 12634028), 10 mM HEPES (Thermo Fisher Scientific, cat. 15630080), 1X GlutaMAX supplement (Thermo Fisher Scientific, cat. 35050061), 0.1 mg/mL primocin (InvivoGen, San Diego, CA, cat. ant-pm-2), 10% defined fetal bovine serum, heat inactivated (HyClone Laboratories Inc., Logan, UT, cat. SH30070.03HI), 50% L-WRN conditioned media (ATCC, cat. CRL-3276), 1.25 mM N-Acetyl-L-cysteine (Sigma-Aldrich, cat. A9165), 10 mM nicotinamide (Sigma-Aldrich, cat. N0636), 1X B-27 supplement (Thermo Fisher Scientific, cat. 17504044), 1X N-2 supplement (Thermo Fisher Scientific, cat. 17502048), 50 ng/mL human EGF (Thermo Fisher Scientific, cat. PHG0311), and 10 microM Y-27632 dihydrochloride (Tocris Bioscience, cat. 1254). The K12877-001-R-J1-PDC line was cultured in 6I media, which includes all 6C/Colon 1B media plus 10 ng/mL human FGF-10 (PeproTech, cat. 100-26), 1 ng/mL human FGF-2 (PeproTech, cat. 100-18B), 1 µM prostaglandin E2 (Tocris Bioscience, cat. 2296), […] hydrocortisone (Sigma-Aldrich, cat. H4001), and […] bovine insulin (Sigma-Aldrich, cat. I6634). The K86415-001-R-J1-PDC line was cultured in 6D media, which includes all 6C/Colon 1B media components minus the L-WRN conditioned media. The 485176-168-R4-J1-PDC was cultured in PANC media, which includes all 6C/Colon 1B media plus 100 ng/mL human FGF-10 (PeproTech, cat. 100-26), 500 nM SB-431542 (Selleckchem, cat. S1067), and 10 nM gastrin (Tocris Bioscience, cat. 3006). […]

[1] = second compound 0.0316 µM, first compound 0.0316 µM
[2] = second compound 0.0316 µM, first compound 0.1 µM
[3] = second compound 0.1 µM, first compound 0.0316 µM
[4] = second compound 0.1 µM, first compound 0.1 µM
[5] = second compound 0.316 µM, first compound 0.0316 µM
[6] = second compound 0.316 µM, first compound 0.1 µM
[7] = second compound 1 µM, first compound 0.0316 µM
[8] = second compound 1 µM, first compound 0.1 µM
[9] = second compound 3.16 µM, first compound 0.0316 µM
[10] = second compound 3.16 µM, first compound 0.1 µM
[11] = second compound 10 µM, first compound 0.0316 µM
[12] = second compound 10 µM, first compound 0.1 µM
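Wherever viability, T/C is given: spheroids exposed to agents for seven days before readout; 100% = DMSO vehicle control wells.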

CC(C)n1nc(-c2ccc3oc(N)nc3c2)c2c(N)ncnc21 + C#Cc1c(F)ccc2cc(O)cc(-c3ncc4c(N5CC6CCC(C5)N6)nc(OCC56CCCN5CC(F)C6)nc4c3F)c12
inactive: viability, T/C (second compound 0.0316 µM, first compound 0.000316 µM) 104% | viability, T/C (second compound 0.0316 µM, first compound 0.001 µM) 100% | viability, T/C (second compound 0.0316 µM, first compound 0.00316 µM) 105% | viability, T/C (second compound 0.0316 µM, first compound 0.01 µM) 91.8% | viability, T/C [1] 68.2% | viability, T/C [2] 48.1% | viability, T/C (second compound 0.1 µM, first compound 0.000316 µM) 114% | viability, T/C (second compound 0.1 µM, first compound 0.001 µM) 105% | viability, T/C (second compound 0.1 µM, first compound 0.00316 µM) 95.7% | viability, T/C (second compound 0.1 µM, first compound 0.01 µM) 100% | viability, T/C [3] 73.4% | viability, T/C [4] 52.5% | viability, T/C (second compound 0.316 µM, first compound 0.000316 µM) 103% | viability, T/C (second compound 0.316 µM, first compound 0.001 µM) 97.6% | viability, T/C (second compound 0.316 µM, first compound 0.00316 µM) 115% | viability, T/C (second compound 0.316 µM, first compound 0.01 µM) 100% | viability, T/C [5] 76.4% | viability, T/C [6] 50% | viability, T/C (second compound 1 µM, first compound 0.000316 µM) 104% | viability, T/C (second compound 1 µM, first compound 0.001 µM) 104% | viability, T/C (second compound 1 µM, first compound 0.00316 µM) 110% | viability, T/C (second compound 1 µM, first compound 0.01 µM) 96.5% | viability, T/C [7] 75% | viability, T/C [8] 52.4% | viability, T/C (second compound 3.16 µM, first compound 0.000316 µM) 116% | viability, T/C (second compound 3.16 µM, first compound 0.001 µM) 128% | viability, T/C (second compound 3.16 µM, first compound 0.00316 µM) 118% | viability, T/C (second compound 3.16 µM, first compound 0.01 µM) 112% | viability, T/C [9] 85.9% | viability, T/C [10] 51.6% | viability, T/C (second compound 10 µM, first compound 0.000316 µM) 115% | viability, T/C (second compound 10 µM, first compound 0.001 µM) 110% | viability, T/C (second compound 10 µM, first compound 0.00316 µM) 123% | viability, T/C (second compound 10 µM, first compound 0.01 µM) 115% | viability, T/C [11] 85.8% | viability, T/C [12] 50.7%
< 7.00: pIC50 (second compound 0.1 µM) | pIC50 (second compound 0.316 µM) | pIC50 (second compound 1 µM) | pIC50 (second compound 3.16 µM) | pIC50 (second compound 10 µM)
7.04: pIC50 (second compound 0.0316 µM)

CC(Nc1ccc2c(c1)OCCn1cc(N3C(=O)OCC3C(F)F)nc1-2)C(N)=O (centres undefined) + C#Cc1c(F)ccc2cc(O)cc(-c3ncc4c(N5CC6CCC(C5)N6)nc(OCC56CCCN5CC(F)C6)nc4c3F)c12
5.58: pIC50 (second compound 0.1 µM)
5.61: pIC50 (second compound 0.316 µM)
5.56: pIC50 (second compound 10 µM)
5.34: pIC50 (second compound 3.16 µM)
5.75: pIC50 (second compound 0.0316 µM)
inactive: viability, T/C [1] 88.4% | viability, T/C [2] 87.2% | viability, T/C (second compound 0.0316 µM, first compound 0.316 µM) 58.2% | viability, T/C (second compound 0.0316 µM, first compound 1 µM) 58% | viability, T/C (second compound 0.0316 µM, first compound 3.16 µM) 47.4% | viability, T/C (second compound 0.0316 µM, first compound 10 µM) 30.6% | viability, T/C [3] 88.8% | viability, T/C [4] 78.6% | viability, T/C (second compound 0.1 µM, first compound 0.316 µM) 70.1% | viability, T/C (second compound 0.1 µM, first compound 1 µM) 57.3% | viability, T/C (second compound 0.1 µM, first compound 3.16 µM) 51.7% | viability, T/C (second compound 0.1 µM, first compound 10 µM) 35.1% | viability, T/C [5] 97.7% | viability, T/C [6] 83.3% | viability, T/C (second compound 0.316 µM, first compound 0.316 µM) 66% | viability, T/C (second compound 0.316 µM, first compound 1 µM) 63.5% | viability, T/C (second compound 0.316 µM, first compound 3.16 µM) 49.2% | viability, T/C (second compound 0.316 µM, first compound 10 µM) 33.8% | viability, T/C [7] 93% | viability, T/C [8] 76% | viability, T/C (second compound 1 µM, first compound 0.316 µM) 64.9% | viability, T/C (second compound 1 µM, first compound 1 µM) 61.5% | viability, T/C (second compound 1 µM, first compound 3.16 µM) 44.2% | viability, T/C (second compound 1 µM, first compound 10 µM) 39.8% | viability, T/C [9] 101% | viability, T/C [10] 76.6% | viability, T/C (second compound 3.16 µM, first compound 0.316 µM) 71.4% | viability, T/C (second compound 3.16 µM, first compound 1 µM) 65% | viability, T/C (second compound 3.16 µM, first compound 3.16 µM) 60.9% | viability, T/C (second compound 3.16 µM, first compound 10 µM) 38% | viability, T/C [11] 102% | viability, T/C [12] 90% | viability, T/C (second compound 10 µM, first compound 0.316 µM) 70% | viability, T/C (second compound 10 µM, first compound 1 µM) 63.9% | viability, T/C (second compound 10 µM, first compound 3.16 µM) 52.5% | viability, T/C (second compound 10 µM, first compound 10 µM) 32.5%
5.65: pIC50 (second compound 1 µM)
